The text below walks through data of US20230391796A1, “GLYCOSIDASE INHIBITORS AND USES THEREOF” (UNIVERSIDAD DE SEVILLA (US) -UNIVERSITY OF SEVILLE (US), priority 2020, published 2023).

Structures can show the parent of a compound that is named as a salt.

Series [1] has as its target β-N-acetylglucosaminidase (from jack bean). The series can be described thus: Inhibition assay against commercial β-N-acetylglucosaminidase (jack bean), p-nitrophenyl N-acetyl-β-D-glucosaminide substrate. Type of series: biochemical. The note with it: pH 5.5, 37° C.; average of three determinations ± s.e.m.; NI = no inhibition detected at 200 μM; read-out: Jack beans Hex. As for the experimental part: (§1) Inhibition Assays Against Commercial β-N-acetylglucosaminidases
(§2) Inhibition constant (Ki) values were determined by spectrophotometrically measuring the residual hydrolytic activities of the glycosidases against p-nitrophenyl N-acetyl-β-D-glucosaminide. […] Each assay was performed in phosphate-citrate buffer and the reactions were initiated by addition of the enzyme to a solution of the substrate in the absence or presence of various inhibitor concentrations. The mixture was incubated for 10-30 min at 37° C. and the reaction was quenched by addition of 1 M Na2CO3. Reaction times were appropriate to obtain 10-20% conversion of the substrate in order to achieve linear rates. The absorbance of the resulting mixture was determined at 405 nm. Approximate values of Ki were determined using a fixed concentration of substrate (around the Km value for the different glycosidases) and various inhibitor concentrations. Full Ki determinations and enzyme inhibition mode were determined from the slope of Lineweaver-Burk plots and double reciprocal analysis using a Microsoft Office Excel 2007 program.

The target in series [2] is β-N-acetylglucosaminidase (from bovine kidney). The series can be described thus: Inhibition assay against commercial β-N-acetylglucosaminidase (bovine kidney), p-nitrophenyl N-acetyl-β-D-glucosaminide substrate. Format: biochemical. The settings on record: pH 5.5, 37° C.; average of three determinations ± s.e.m.; NI = no inhibition detected at 200 μM; read-out: Bovine kidney Hex. As for the experimental part: as §1, §2

The target in series [3] is β-N-acetylglucosaminidase (from human placenta). The series can be described thus: Inhibition assay against commercial β-N-acetylglucosaminidase (human placenta), p-nitrophenyl N-acetyl-β-D-glucosaminide substrate. Format: biochemical. The note with it: pH 5.5, 37° C.; average of three determinations ± s.e.m.; read-out: Human placenta Hex. As for the experimental part: as §1, §2

In another series the target is T1, hOGA (Homo sapiens, UniProt O60502).
T1 sequence (O60502 1-916): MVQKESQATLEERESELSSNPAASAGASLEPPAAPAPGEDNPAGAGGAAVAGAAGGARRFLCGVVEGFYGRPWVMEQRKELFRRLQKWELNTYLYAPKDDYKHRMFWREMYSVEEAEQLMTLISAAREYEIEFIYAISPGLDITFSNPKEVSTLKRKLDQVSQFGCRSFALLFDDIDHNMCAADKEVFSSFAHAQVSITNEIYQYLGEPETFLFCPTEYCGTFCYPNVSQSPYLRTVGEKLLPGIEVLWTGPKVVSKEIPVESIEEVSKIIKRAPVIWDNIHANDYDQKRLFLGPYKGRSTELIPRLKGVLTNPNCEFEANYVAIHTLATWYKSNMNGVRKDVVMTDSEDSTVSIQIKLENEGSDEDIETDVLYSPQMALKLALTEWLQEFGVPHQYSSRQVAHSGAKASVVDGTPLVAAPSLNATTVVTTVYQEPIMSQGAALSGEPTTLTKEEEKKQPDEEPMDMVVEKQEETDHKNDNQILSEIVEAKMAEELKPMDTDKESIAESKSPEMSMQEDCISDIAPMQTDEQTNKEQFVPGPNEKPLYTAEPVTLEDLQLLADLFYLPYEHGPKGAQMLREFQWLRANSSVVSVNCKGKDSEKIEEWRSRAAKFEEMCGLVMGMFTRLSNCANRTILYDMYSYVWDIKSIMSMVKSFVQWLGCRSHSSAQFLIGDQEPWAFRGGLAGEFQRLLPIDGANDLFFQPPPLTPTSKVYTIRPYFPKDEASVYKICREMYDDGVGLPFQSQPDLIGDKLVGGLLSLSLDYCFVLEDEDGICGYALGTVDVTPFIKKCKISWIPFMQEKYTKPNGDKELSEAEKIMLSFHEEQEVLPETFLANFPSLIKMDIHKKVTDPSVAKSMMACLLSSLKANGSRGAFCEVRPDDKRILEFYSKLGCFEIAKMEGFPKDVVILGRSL
The series can be described thus: Inhibition assay against hOGA, resorufin N-acetyl-β-D-glucosaminide fluorescence. Type of series: biochemical. The settings on record: 0.2 nM hOGA, 25 μM substrate, pH 7.1; Morrison Ki. The protocol:
Inhibition Assays Against hOGA
Km=25 μM was measured with these conditions. Inhibition assays were run at 0.2 nM [hOGA] in the same buffer, in the presence or absence of various concentrations of inhibitors and at a fixed substrate concentration of 25 μM and 1% DMSO. First, inhibitor was serially diluted to the desired range of concentrations in 2% DMSO buffer. Next, 50 μL of inhibitor solutions at various concentrations in 2% DMSO Buffer was added to 50 μL of 0.8 nM enzyme and allowed to incubate at 25° C. for 5 minutes. 100 uL of 50 μM and 1% DMSO substrate was then added and reaction mixture was immediately mixed and aliquoted in 45 μL triplicates to a CORNING 384 well black plate. Fluorescence signal was measured continuously for 20 minutes at 37° C. in a BioTek Neo 2 Plate reader set at excitation and emission wavelengths of 572 and 610 nm, respectively. Max reaction rates for all inhibitor concentrations were calculated within Gen5 BioTek reader software. % Activity was subsequently calculated for each inhibitor concentration against the max reaction rate of uninhibited hOGA. GraphPad Prism 2016 was used to approximate the Morrison Ki values for each inhibitor.

The target of series [4] is T2, Recombinant Human Hexosaminidase A (HexA) (Homo sapiens, UniProt P06865).
T2 construct: purchased R&D Systems 6237-GH-020
T2 sequence (P06865 89-529): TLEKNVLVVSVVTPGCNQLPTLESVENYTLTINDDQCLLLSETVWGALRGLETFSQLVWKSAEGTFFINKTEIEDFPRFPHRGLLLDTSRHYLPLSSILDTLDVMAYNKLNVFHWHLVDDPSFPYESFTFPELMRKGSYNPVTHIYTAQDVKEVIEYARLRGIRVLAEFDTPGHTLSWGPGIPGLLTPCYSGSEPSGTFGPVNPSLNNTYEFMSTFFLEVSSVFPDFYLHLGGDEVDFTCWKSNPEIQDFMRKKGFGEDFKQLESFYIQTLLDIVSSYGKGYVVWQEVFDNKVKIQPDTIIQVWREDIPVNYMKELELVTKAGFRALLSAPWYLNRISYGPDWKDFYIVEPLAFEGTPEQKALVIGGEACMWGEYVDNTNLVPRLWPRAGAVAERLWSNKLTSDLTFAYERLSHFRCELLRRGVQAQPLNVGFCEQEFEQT
The series can be described thus: Inhibition assay against rhHexA, 4-methylumbelliferone-N-acetyl-β-D-glucosaminide fluorescence. Format: biochemical. The note with it: IC50 for lysosomal hHexA; NI = no inhibition detected at 200 μM. The protocol:
Inhibition Assays Against rhHexA
Human Hexosaminidase A (HexA) enzyme, purchased from R&D Systems (cat# 6237-GH-020), were determined by measuring the fluorescent signal corresponding to the rate of hydrolytic activity against the commercially available artificial substrate, 4-Methylumbelliferone-N-acetyl-β-D-glucosaminide. HexA activity assays were performed in a buffer of 100 mM sodium citrate, 250 NaCl, pH 4.5 and 1.0 nM [HexA], then stopped after 20 minutes with a solution of 1.0 M Tris, pH 9.5 to enhance fluorescent signal. Preliminary experiments have shown that reaction rates are linear for 20 minutes after substrate addition, and that 1.0 M Tris at pH 9.5 is sufficient for stopping activity, as signal is stable after stopping. Inhibition assays were run in the presence or absence of various concentrations of inhibitors and at a fixed substrate concentration of 100 μM and 1% DMSO. First, inhibitor was serially diluted to the desired range of concentrations in 2% DMSO buffer. Next, 25 μL, of inhibitor solutions at various concentrations in 2% DMSO Buffer was added to 25 μL, of 4.0 nM enzyme and allowed to incubate at 25° C. for 5 minutes. 50 μL of 200 μM and 1% DMSO substrate was then added and allowed to react for 20 minutes. 100 μL of stop solution was added to reaction mixture, and immediately mixed and aliquoted in 45 μL triplicates to a CORNING 384 well black plate. Fluorescence signal was measured in a BioTek Neo 2 Plate reader set at excitation and emission wavelengths of 355 and 450 nm, respectively. % Activity was subsequently calculated for each inhibitor concentration against the fluorescence signal of uninhibited HexA. […]

Series [5] in a line: In vivo pharmacokinetics, plasma and brain concentrations. The note with it: 3 mg/kg single dose. Further details: species or system C57BL/6 mice. As for the experimental part:
Mean plasma concentration (ng/mL) of compound 4 in C57BL/6 mice after 3 mg/kg i.v. administration.
Mean brain concentration (ng/mL) of 4 in C57BL/6 mice after 3 mg/kg i.v. administration
Assay for Determination of the in vivo Pharmacokinetics.
The pharmacokinetic profiles of the compounds to be tested were evaluated in vivo in C57BL/6 mice (n=14) following a 3 mg/kg […] dose.

Regarding `CC(=O)N[C@H]1CN2/C(=N/Cc3ccccc3)SC[C@@H]2[C@@H](O)[C@@H]1O` [Compound 4, 2-Acetamido-5-N,6-S-(N′-benzyliminomethylidene)-1,2-dideoxy-6-thionojirimycin Hydrochloride], the Ki was determined as 750 ± 40 nM in series [1], 460 ± 30 nM in series [2], 420 ± 30 nM in series [3] and 2.99 nM on hOGA. Also, the IC50 in series [4] is 560 nM. Moreover, the “brain concentration, start of the decrease (FIG. 2)” value in series [5] (homogenized brain, initial value) was determined as 26 ng/g. Besides, the “plasma concentration, start of the decrease (FIG. 1)” value in series [5] (plasma, initial value) was 1100 ng/mL. Besides, the concentration at 24 h in series [5] (C57BL/6, mouse, intravenous, homogenized brain, 24 h, read-out: brain concentration after 24 h (FIG. 2)) was 7.5 ng/g. Moreover, in series [5] (C57BL/6, mouse, intravenous, plasma, 12 h, read-out: plasma concentration after 12 h (FIG. 1)), the concentration at 12 h turned out to be 0.78 ng/mL.
